Broadly, the fraction unbound is the share of the substance not bound to proteins or other matrix. Higher therefore signals much free substance.

One data set addresses T1, PAR2 (Mus musculus, UniProt P55086).
T1 construct: from tissue; host or cells: living C57BL6 mice (hind paw / nociceptors)
T1 sequence (P55086 26-399): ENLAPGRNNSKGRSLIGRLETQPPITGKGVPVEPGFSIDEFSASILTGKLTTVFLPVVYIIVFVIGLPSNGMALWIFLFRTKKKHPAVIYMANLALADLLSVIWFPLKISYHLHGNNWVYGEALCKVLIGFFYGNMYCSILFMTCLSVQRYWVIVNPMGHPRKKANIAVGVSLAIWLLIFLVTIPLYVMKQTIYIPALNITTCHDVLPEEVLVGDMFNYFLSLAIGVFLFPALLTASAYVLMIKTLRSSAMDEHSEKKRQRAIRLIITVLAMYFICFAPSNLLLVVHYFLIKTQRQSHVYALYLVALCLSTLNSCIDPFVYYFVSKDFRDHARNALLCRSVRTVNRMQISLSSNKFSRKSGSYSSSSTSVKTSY
As to the kind of experiment: Local intraplantar coinjection of C781 with PAR2 agonist 2AT: von Frey, Mouse Grimace Scale, hyperalgesic priming (PGE2). The following applies: 2AT 20.9 ng intraplantar. Format: in vivo, C57BL6 mice. As for the experimental part:
Experimenters were blinded to treatment groups in all experiments. Animals were habituated to suspended acrylic chambers with each individual chamber measuring 11.4 × 7.6 × 7.6 cm and a wire mesh bottom (1 cm^2). Mechanical hypersensitivity was assessed using the manual von Frey hair test after spontaneous pain assessment using the Mouse Grimace Scale (MGS). This was done to assure that grimacing responses were not a result of mechanical stimulation.
MGS were determined using the MGS test as described by Langford and colleagues.[37] After habituation, the experimenter observed the mice and assigned intensity ratings (0 = not present, 1 = moderately present, 2 = severe) to the facial action units relative to baseline. The 5 action units identified are 1) orbital tightening, 2) nose bulge, 3) cheek bulge, 4) ear position, and 5) whisker change. The scores for all 5 action units are averaged to obtain the MGS score for each time point.
Hind paw withdrawal thresholds were calculated via the Dixon up-down method after applying calibrated von Frey filaments from Stoelting, Co. (cat# 58011) to the volar surface of the left hind paw.[12] […] The maximum filament weight used was 2 g.
Hyperalgesic priming was determined after allowing animals to return to baseline levels and injecting the previously injected paw with 100 ng of PGE2 (Cayman Chemical, Ann Arbor, MI). […]

Data set [1] in a line: in vitro. The data set is classed as in vitro ADME. The following applies: human; for fraction unbound at 4 h, 5 µM: plasma. As for the experimental part: (§1) The objective of this study was to evaluate protein binding test compounds in human and mice plasma. This was accomplished by spiking the test compounds at a concentration of 5 µM into human and mice plasma and dialyzing against buffer until equilibrium is achieved (4 hours). Analyte area ratios of the test compounds in plasma and buffer were determined to calculate unbound and bound percentages of compound to the plasma proteins.
(§2) Compound concentration : 5 µM
(§3) Rapid equilibrium dialysis was performed with a rapid equilibrium dialysis (RED) device containing dialysis membrane with a molecular weight cut-off of 8,000 Daltons. Each dialysis insert contains two chambers. The red chamber is for plasma while the white chamber is for buffer.
(§4) After sealing the RED device with an adhesive film, dialysis was performed in incubator at 37 °C with shaking at 100 RPM for 4 hours.
(§5) Two aliquots were frozen immediately (0 minute sample). The other two aliquots were incubated at 37 °C for 4 hours along with the RED device.
(§6) Following dialysis, an aliquot of 50 µL was removed from each well (both plasma and buffer side) and diluted with equal volume of opposite matrix (dialyzed with the other matrix) to nullify the matrix effect. Similarly, 50 µL of buffer was added to recovery and stability samples. An aliquot of 100 µL was submitted for LC-MS/MS analysis.
(§7) The peak area ratios (analyte versus internal standard) obtained was used to determine the fraction of compound bound to plasma proteins. The following equation was used to determine the extent of plasma protein binding:
(§8) Percent free drug = 100 x (peak area ratio in dialysate buffer)
(§9) Percent bound drug = 100 - % free drug
(§10) Recovery (%): 100 x (response plasma + response buffer) after dialysis / (response plasma) incubated at 37 °C in tubes along with RED device.
(§11) Stability (%):100 x (response plasma) incubated at 37 °C in tubes along with RED device / (response plasma) samples frozen at 0 min

The nature of data set [2]: in vitro. Format: in vitro ADME, mice. The following applies: mouse; for fraction unbound at 4 h, 5 µM: plasma. As for the experimental part: as §1, §2, §3, §4, §5, §6, §7, §8, §9, §10, §11

For “2-aminothiazo-4-yl-LIGRL-NH2 [Compound 2AT]”, the “Nociceptive behaviors evoked by agonist (mechanical hypersensitivity, facial grimacing)” value at PAR2 was “caused both mechanical hypersensitivity and facial grimacing”. Besides, at PAR2 (then PGE2 100 ng intraplantar), the “Hyperalgesic priming by agonist (response to PGE2)” value is “primed and exhibited mechanical allodynia and facial grimacing in response to PGE2”.
On to `CC(=O)CC(c1ccccc1)c1c(O)c2ccccc2oc1=O` (stereo not drawn) [Warfarin], for which the results for the recovery at 4 h, 5 µM in the data set “in vitro [1]” (pH 7.4) and in “in vitro [2]” (pH 7.4) were 97% and 94%, respectively. The fraction unbound at 4 h, 5 µM was 0.011 in the data set “in vitro [1]” (pH 7.4, % Bound Mean ± SD); 0.012 in “in vitro [1]” (pH 7.4, % Bound R1); 0.01 in “in vitro [1]” (pH 7.4, % Bound R2); 0.011 in the data set “in vitro [1]” (pH 7.4, % Bound R3); 0.061 in the data set “in vitro [2]” (pH 7.4, % Bound Mean ± SD); 0.058 in “in vitro [2]” (pH 7.4, % Bound R1). In addition, the fraction unbound at 4 h, 5 µM is 0.057 in “in vitro [2]” (pH 7.4, % Bound R2) and 0.07 in “in vitro [2]” (pH 7.4, % Bound R3).

(Values after paper PMC10079573 (The journal of pain, 2022).)
